Assay: method code SF, from DOI: 10.1021/jm101405t, PMID: 21319751
Settings: pH 7.4

| Structure (SMILES) | logD |
| --- | --- |
| OCCc1ccc(OCc2ccccc2-c2ccccc2)cc1 | 3.25 |
| OCCc1ccc(OCc2ccccc2)cc1 | 1.96 |
| OCCc1ccc(-c2cccc(OCCc3ccccc3)c2)cc1 | 3.63 |
| OCCc1ccc(OCc2cccc(-c3nccs3)c2)cc1 | 2.11 |
| OCCc1ccc(OCc2ccc(-c3ccccc3)cc2)cc1 | 3.41 |
| OCCc1ccc(OCc2cccc(-c3cccs3)c2)cc1 | 3.22 |
| OCCc1ccc(OCc2cccc(-c3ccccn3)c2)cc1 | 1.94 |
| OCCc1ccc(OCc2cccc(-c3ccccc3)c2)cc1 | 3.37 |
| OCCc1ccc(OCc2ccccc2Oc2ccccc2)cc1 | 3.32 |

From the SangsterLogP compilation
